Experimental data published in patent publication US11234960B2, “Compositions and methods for improving mitochondrial function and treating neurodegenerative diseases and cognitive disorders” (Amazentis SA, priority 2010, dated 2022).

Tests used:
[1] = tested on: normal mice; assay: Rotarod assay in normal mice; format: in vivo; settings: 90 mg/kg/day in diet for 3 months, four trials (FIG. 48)
Experimental: Beginning at 3 months of age, mice were fed either a standard control diet such as AIN-93G or a diet containing punicalagin to deliver a dose of 90 mg/kg/day for a period of 3 months.
To examine the effect of pomegranate derived compounds on muscle performance and motor skills, mice were tested on the rotarod behavioral assay. The rotarod apparatus consists of a rod with a diameter of 2 cm with 5 compartments, 5 cm wide. A mouse is placed on a rotating rod which is started at an initial speed of 5 rpm. The rod speed is gradually accelerated at a rate of 8 rpm/min. The latency to fall was measured with a cutoff time of 300 seconds. Mice were tested for four trials. The latency to fall is a measure of the muscle performance and motor skills of the mice, with a better performance reflected by a longer latency to fall. Both control untreated and punicalagin-treated mice were tested. […] Punicaligin-treated mice were able to remain on the rotarod for a longer time and at higher speeds compared to untreated mice during sequential trial periods (FIG. 48).

[2] = tested on: C2C12 myotubes (PGC-1α, Tfam, PFKFB3, CPT1b, MCAD, LCAD, Ndufa2, Cyt c, Mfn2); assay: Mitochondrial gene expression by real time quantitative PCR in C2C12 myotubes; format: cell-based; settings: 48 hr, 1, 10 or 50 μM, vs DMSO control (FIG. 3)
Experimental: To assess the effects of compounds on mitochondrial gene expression, C2C12 myoblasts were differentiated into myotubes by serum deprivation for 4 days (Cantó et al. (2009) Nature. 458:1056-60). Myotubes were incubated for 48 hr with ellagic acid or urolithin A at a final concentration of 1, 10 or 50 μM (all dissolved in DMSO, final concentration 0.1%). DMSO was used as a control (final concentration 0.1%). At the end of the treatment, cells were washed with phosphate buffered saline (PBS) and mRNA were immediately extracted according to manufacturer's instructions (Trizol Reagent, Invitrogen) by adding 1 mL of Trizol reagent. After extraction, cDNA were produced by reverse transcription according to manufacturer's instructions.
Assessment of the expression levels of genes (PGC-1α, Tfam, PFKFB3, CPT1b, MCAD, LCAD, Ndufa2, Cyt c, and Mfn2) which control the mitochondrial function was performed by real time quantitative PCR (Watanabe et al. (2004) J Clin Invest. 113:1408-18) by using the following set of primers (Fwd: forward primer; Rev: reverse primer): […]
PGC-1α (PPARγ-coregulator 1α) and Tfam (mitochondrial transcription factor A) are master regulators of the mitochondrial function, namely of mitochondrial biogenesis and mitochondrial phosphorylative oxidation (mOXPHOS). […]

[3] = tested on: normal mice; assay: Treadmill endurance test in normal mice; format: in vivo; settings: 55 mg/kg/day in food, 6 weeks of treatment (FIG. 49)
Experimental: Normal 8-week-old mice were acclimated for 2 weeks prior to the start of the study. Mice were fed with a standard rodent diet (chow diet) or a diet containing urolithin A mixed with the food to reach a dosing of 55 mg/kg/day delivered to the mice. Following 6 weeks of treatment, mice were tested for their muscle performance by means of an endurance test.
An endurance test was performed using a variable speed belt treadmill enclosed in a plexiglass chamber with a stimulus device consisting of a shock grid attached to the rear of the belt (Panlab, Barcelona, Spain). Mice were run at 10 cm/sec and a 0° of incline for 5 min. Speed was then incremented by 2 cm/sec every 5 min, until mice were exhausted. The distance run and the number of shocks obtained over 5 min intervals were recorded. Mice were considered exhausted and removed from the experiment when they received approximately 20 shocks in a period of 1 min. Control untreated and urolithin A-treated mice were tested and compared for their performance.
Improved muscle performance and endurance is reflected by an ability to run at higher speeds on the treadmill. Mice will seek to avoid the shock and will run despite the increasing speed. At a certain point the mice are unable to keep up with the treadmill speed and are shocked. After reaching the threshold levels of shocks, mice are removed from the treadmill. […]

| Structure (SMILES) | muscle performance and motor skills, latency to fall from rotarod [1] | mitochondrial activity by expression of mitochondrial genes [2] | muscle performance and endurance, treadmill speed [3] |
| --- | --- | --- | --- |
| O=C1O[C@H]2[C@@H]3OC(=O)c4cc(O)c(O)c(O)c4-c4c(O)c(O)c5oc(=O)c6c(c(O)c(O)c7oc(=O)c4c5c76)-c4c(cc(O)c(O)c4O)C(=O)OC[C@H]3OC(O)[C@@H]2OC(=O)c2cc(O)c(O)c(O)c2-c2c1cc(O)c(O)c2O (mixture of isomers) [punicalagin, 2,3 hexahydroxydiphenoyl-4,6-gallagylglucose] | significantly improve muscle performance and motor skills |  |  |
| O=c1oc2c(O)c(O)cc3c(=O)oc4c(O)c(O)cc1c4c23 [ellagic acid] |  | increase mitochondrial activity in a dose-dependent manner |  |
| O=c1oc2cc(O)ccc2c2ccc(O)cc12 [urolithin A, 3,8-Dihydroxydibenzo-α-pyrone] |  | increase mitochondrial activity in a dose-dependent manner | ran at higher speeds than untreated control mice |
